Test [1] relates to rat right atria. The test can be described thus: Right atrial spontaneous (pacemaker-driven) contraction frequency. As to the method: (§1) Male Sprague-Dawley rats (325-400 g) were anesthetized with intra-peritoneal pentobarbital (0.1 g/kg). Their right and left atria were isolated, superfused at 30° C. in Krebs-Henseleit buffer, and nearly isometric forces of contraction were measured from these muscles (Wolkowicz et al., 2002). 2-APB was prepared as a 150 mM dimethyl sulfoxide stock.
Left atria (n=9) were paced at 0.1 Hz, treated with 300 nM BayK 8644 for 5 min, then with 20 μM 2-APB for 10 min, and the pacing stimulus was stopped. These preparations then were incubated with six increasing concentrations of zatebradine (10-100 μM) for 3-5 min at each concentration, and rates of SMA were recorded. Untreated right atria (n=9) also were titrated with zatebradine and its effect on contraction frequency was recorded.
To test whether zatebradine affects the SMA occurring in the presence of 2-APB and isoproterenol, left atria (n=7) were paced at 0.1 Hz, treated with 30 nM isoproterenol for 5 min, then with 20 μM 2-APB for 10 min, and the pacing stimulus was stopped. Rates of SMA were recorded, these left atria were exposed to 70 μM zatebradine for 10 min, and rates of SMA were recorded again. A group of right atria (n=7) also were exposed to 30 nM isoproterenol for 5 min and then to 70 μM zatebradine for 10 min. Right atrial contraction frequency was recorded at these two times.
To test whether ZD-7288 (4-Ethylphenyl amino-1,2-dimethyl-6-methylaminopyridinium chloride), an If inhibitor structurally unrelated to zatebradine (Baruscotti et al., 2005; Sanders et al., 2006) affects the SMA occurring in the presence of 2-APB and BayK 8644, rat left atria (n=7) were treated with 300 nM BayK 8644 for 5 min, then with 20 μM 2-APB for 10 min, and the rates of SMA were recorded. These atria then were incubated with six increasing concentrations of ZD-7288 (10-100 μM) for 3-5 min at each concentration, and the rates of SMA were recorded. Right atria (n=7) were titrated similarly with ZD-7288 (0-100 μM) and the change in their contraction frequency was recorded.

Test [2] has as its system rat left atria. The test can be described thus: Spontaneous tachycardic activity (STA) in isolated rat left atria exposed to 2-APB under increased calcium load. The settings on record: for effect of If inhibitor on left atrial STA: BayK 8644 and 2-APB, zatebradine 70 μM, ZD-7288 titration to 100 μM. As to the method:
as §1
(§2) Left atria (n=8 per group) were paced at 3 Hz and (i) titrated with 0 to 30 nM isoproterenol (Ahlquist, 1970) or (ii) exposed to 3 μM forskolin (Laurenza et al., 1980). Left atrial force and frequency of contraction, the time to peak tension and relaxation times were recorded after a 3-5 min exposure to forskolin or to any concentration of isoproterenol. The 3 Hz pacing stimulus was interrupted at the end of these protocols to measure SMEs.
(§3) Left atria (n=10 per group) were paced at 0.1 Hz and treated with (i) 20 μM 2-APB for 10 min, (ii) with 30 nM isoproterenol for 5 min followed by 20 μM 2-APB for 10 min, and (iii) with 3 μM forskolin for 5 min followed by 20 μM 2-APB for 10 min.
Left atrial contraction and relaxation times were recorded at these five times, the pacing stimulus was stopped and rates of SMA were recorded. To determine whether initial pacing rate affects left atrial response to 2-APB and isoproterenol, left atria (n=5-7 per group) were paced at 3 Hz and (i) remained untreated for 15 min, (ii) were treated with 20 μM 2-APB alone for 10 min, or (ii) were treated with 30 nM isoproterenol for 5 min followed by 20 μM 2-APB for 10 min. Atrial mechanical function was measured at these four times; the pacing stimulus then was stopped and rates of SMA were recorded.
(§4) Left atria (n=6 per group) were paced at 3 Hz, titrated with 0 to 300 nM (−)BayK 8644 ([…]-1,4-Dihydro-2,6-dimethyl-5-nitro-4-[2-(trifluormethyl)phenyl]-3-pyridinecarboxylic acid methyl ester; Franckowiak et al. 1985) or FPL-64176 ((2,5-Dimethyl-4-[2-(phenylmethyl)benzoyl]-111-pyrrole-3-carboxylic acid methyl ester; Zheng et al., 1991) and their mechanical function and rates of SMA were recorded after a 5 min exposure to any concentration of slow calcium channel activator.
Left atria (n=8 per group) were paced at 0.1 Hz, exposed to 300 nM BayK 8644 or FPL-64176 for 5 min followed by 20 μM 2-APB for 10 min. Atrial mechanical function was recorded at this time; the pacing stimulus then was stopped and rates of SMA were recorded.
(§5) To test whether ryanodine receptor calcium leak produces SMA, left atria (n=6 per group) were paced at 0.1 Hz, treated with 0 or 300 nM BayK 8644 for 5 min, and then exposed to 600 nM ryanodine (Sutko et al., 1997). Atrial mechanical function and rates of SMA were recorded 20 min after exposure to ryanodine.
Rates of SMA were measured 5 min later.
(§6) Left atria (n=7) were paced at 3 Hz, treated with 120 μM ouabain (Illanes and Marshall, 1964), and any change in mechanical function was recorded at a new steady state, ˜10 min later. These atria were exposed to 20 μM 2-APB and their mechanical function and rates of SMA were recorded 10 min later.
3 Hz-paced left atria (n=9 per group) were superfused (i) in Krebs-Henseleit alone or (ii) they were treated with 20 μM 2-APB for 10 min, (iii) with 300 nM BayK 8644 for 10 min and with 20 μM 2-APB for 10 min, or (iv) they were treated with 300 nM BayK 8644 and 20 μM 2-APB for 10 min, then with 70 μM zatebradine (3-[3-[[2-(3,4-Dimethoxyphenyl)ethyl]methylamino] propyl]-1,3,4,5-tetrahydro-7,8,-dimethoxy-2H-3-benzazepin-2-one hydrochloride) for 10 min (Baruscotti et al., 2005). Pacing was interrupted at these times and rates of SMA were recorded.

Test [3] concerns rat left atria. The test can be described thus: Left atrial force of contraction / post-rest potentiation maximum force. As to the method:
(§7) Left atria were isolated from male Sprague-Dawley rats (325 to 400 g) under IP pentobarbital anesthesia (0.1 g/kg). Isolated left atria were superfused at 30° C. in Krebs-Henseleit (KH) buffer of the following mM composition: NaCl, 118; NaHCO3, 27; KCl, 4.8; MgSO4, 1.2; KH2PO4, 1.0; CaCl2, 1.8; and glucose, 11.1. Nearly isometric left atrial forces of contraction were measured as described.
The initial potentiated beat following prolonged rest (i.e., the PRP maximum force of contraction) reflects activator calcium available for SR release. The PRP response was used to obtain an indirect measure of left atrial SR calcium under our conditions.
Left atria (n=6) were superfused in KH, paced at 0.1 Hz, and subjected to PRP. Superfusion proceeded for another 35 min, and a second PRP was performed. These 2 forces were compared to assure the mechanical stability of our preparations.
One group (n=8) was superfused in KH, paced at 0.1 Hz, and their maximum force of contraction was measured. These atria were washed with KH containing 82 mM sodium, and a second PRP was performed 23 min later.
A second group (n=8) was paced at 0.1 Hz in KH and subjected to PRP. They were exposed to 22 μM 2-APB and, after the appearance of SMA, were washed with KH containing 22 μM 2-APB and 82 mM sodium. Superfusion continued for 23 min and a second PRP was performed.
Control 0.1 Hz paced atria (n=8) were subjected to PRP and exposed to 400 μM DIDS, and a second PRP was performed 23 min later.
A group of atria (n=8) were paced at 0.1 Hz in KH and subjected to PRP. They were exposed to 22 μM 2-APB, 400 μM DIDS was added to the superfusate after the appearance of SMA, and a second PRP was performed 23 min later.
as §2, §4, §5, §6
To test whether zatebradine affects left atrial force of contraction, two groups of left atria (n=9 per group) were paced at 3 Hz and treated with 300 nM BayK 8644. Five minutes later one group was incubated with six increasing concentrations of zatebradine (10-100 μM) for 3-5 min at each concentration, and forces of contraction were recorded. A second group was treated with BayK 8644 but not zatebradine, and forces of contraction were recorded at corresponding times.

Test [4] concerns rat left atrial appendage. The test can be described thus: 2-APB-induced spontaneous mechanical activity (SMA/SMEs) in isolated superfused rat left atria / left atrial appendage. Conditions: 0.1 Hz paced, 15 μM 2-APB, titration after appearance of SMA. As for the experimental part:
as §7
Isolated superfused left atria were paced at 3 Hz. 2-APB was added to atrial superfusates from 0.015 or 0.15M DMSO stock solutions to achieve concentrations of 0, 2, 7.5, 15, or 22 μM (n=5 to 10 atria per concentration). Changes in atrial mechanical force were recorded during a subsequent 15 min superfusion.
Two groups of 5 to 6, 3 Hz paced atria were superfused in KH and exposed to 0 or 15 μM 2-APB for 10 min. The pacing stimulus was interrupted for 5 min and the number of spontaneous mechanical events (SMEs), defined as increases in mechanical force occurring in the absence of pacing, were measured as was the postrest potentiation response (PRP).
To determine whether diastolic interval affected the interaction between 2-APB and left atria, atrial pacing was decreased to 0.1 Hz, and 0, 7.5, or 22 μM 2-APB was added to the superfusate (n=6-8 per group). Superfusions continued for 15 min, and changes in atrial mechanical function were observed.
To establish whether SMA was reversible, atria (n=7) were paced at 0.1 Hz, exposed to 15 μM 2-APB for 10 min, and washed with KH. The effect of removing 2-APB on atrial mechanical function was recorded.
To test whether an anion transport inhibitor affected SMA, atria (n=7) were paced at 0.1 Hz in KH and exposed to 15 μM 2-APB. Following the appearance of SMA, they were titrated with 100 to 400 μM DIDS for 3 to 5 min at each concentration. Whether SMA occurred at the end of each titration period was recorded.
as §3
The appendages then were titrated with increasing concentrations of 2-APB, and SMA was measured and recorded.
To determine the anti-arrhythmic activity of gossypol, isolated rat left atrial appendage and right ventricular muscle strips were used as model systems, as described above. Heart muscle was exposed to 20 μM 2-APB for 10 min to induce SMA, and rates of SMA were recorded as a percentage of initial SMA. The muscles then were titrated with up to 5 increasing concentrations of gossypol. Rates of SMA were recorded ˜10 min after the addition of concentration of the polyphenol.
To determine whether EGCG can prevent arrhythmia, rat left atrial appendages (n=9) were exposed to 20 μM 2-APB and rates of SMA were recorded. Groups of muscles (n=6 per) were pre-treated with 30 μM EGCG for 10 min following which they were exposed to 2-APB. Rates of SMA were recorded 10 min later.
To determine whether EGCG is effective to reverse arrhythmia, isolated rat left atrial appendage and right ventricular muscle strips were used as model systems, as described above. Rat left atrial appendages were exposed to 20 μM 2-APB for 10 min to induce SMA, and rates of SMA were recorded as a percentage of initial SMA. The left atrial appendages then were titrated with up to 5 increasing concentrations of the following polyphenols: EGCG, gossypol, resveratrol, and quercetin. Rates of SMA were recorded ˜10 min after the addition of concentration of the polyphenol.
To determine whether EGC can prevent arrhythmia, left atrial appendages (n=9) were exposed to 20 μM 2-APB and rates of SMA were recorded. Groups of appendages (n=6 per) were pre-treated with 30 μM EGC for 10 min following which they were exposed to 2-APB.

The term IC50 denotes the concentration that inhibits the measured activity by half.

Molecules are shown by their SMILES. Structures can show the parent of a compound that is named as a salt.

In the case of `COc1ccc(CCN(C)CCCN2CCc3cc(OC)c(OC)cc3CC2=O)cc1OC` [zatebradine, 3-[3-[[2-(3,4-Dimethoxyphenyl)ethyl]methylamino]propyl]-1,3,4,5-tetrahydro-7,8,-dimethoxy-2H-3-benzazepin-2-one hydrochloride], the IC50 in test [1] (Rattus norvegicus, untreated right atria titrated with zatebradine, read-out: IC50 for decrease of right atrial contraction frequency) worked out at 12 ± 1.1 µM; in test [2] (Rattus norvegicus, intact left atria exposed to BayK 8644 and 2-APB, read-out: IC50 for decrease of STA) it was 58 ± 5 µM. In test [1] (isoproterenol+70 μM zatebradine), the “right atrial contraction frequency” value was 212±9.7 contractions/min. The “maximum decrease of right atrial contraction frequency” value in test [1] (zatebradine titration) is approximately 50%. For the same compound, the “effect of If inhibitor on left atrial STA” value in test [2] is “significantly decreases”. Moreover, the “rate of appendage STA” value in test [2] (isoproterenol+2-APB+70 μM zatebradine) is on record as 110±24.5 contractions/min. The “left atrial force of contraction” value in test [3] (3 Hz paced, 300 nM BayK 8644, titrated with 10-100 μM zatebradine) is listed as 95±3.8 % of initial force.
For `CCN(c1ccccc1)c1cc(NC)[n+](C)c(C)n1.[Cl-]` [ZD-7288], in test [1] (ZD-7288 titration 0-100 μM), the “effect on right atrial contraction frequency” value is listed as “decreases right atrial contraction frequency less robustly than zatebradine”. For the same compound, the “effect of If inhibitor on left atrial STA” value in test [2] was “decreases left atrial STA”.
`O=S(=O)(O)c1cc(N=C=S)ccc1C=Cc1ccc(N=C=S)cc1S(=O)(=O)O` [DIDS, 4,4′-diisothiocyanatostilbene-2,2′-disulfonic acid]: the “maximum forces of left atrial contraction, beginning vs end of 35-min superfusion” value in test [3] (400 μM DIDS alone, no 2-APB) was “not different”. Besides, in test [4], the “DIDS concentration that reversed SMA completely” value is more than 300 µM.
